Measured values: US4390613A, “Diffusion transfer photographic system utilizing substituted phenylmercaptoazoles” (Polaroid Corporation, priority 1981, dated 1983)
Where two headings read alike, the source gives them in different places.

Assays:
[1] = Solubility product of the silver salts (Table II); format: physicochemical; conditions: for Ksp: silver salt
Text: Solubility product measurements were made for the silver salt of phenylmercaptotetrazole (PMT) at pH 13.5 and for the silver salt of compound II at pH 7 and pH 13.5 (above and below the pka of the oxime substituent).

[2] = Solubility of silver salts in presence of excess anion (Table III); format: physicochemical
Procedure: The solubilities of the silver salts of PMT and compound II in the presence of excess amounts of their anions were measured at pH 7.0 and 13.5. Each solution was 4×10^-3 molar in silver. The results are shown in Table III wherein the solubility data is expressed in μmoles/liter of total silver.

[3] = silver salt, pH 7; Z. C. H. Tan, Photogr. Sci. Eng. 19, 17 (1975); cited from earlier work
[4] = Ionization and stability in aqueous alkaline processing composition; format: physicochemical
Text: However, it has been shown by experimentation that incorporating compound XI in a film unit according to the invention will provide advantageous results. Thus, it would appear that compound XI undergoes a change in aqueous alkaline processing composition and that the acetyl substituent is a precursor of a group which has the requisite properties described above which provide the desired results. […] It is therefore preferred to incorporate the compound elsewhere in the film unit, for example, in the photosensitive element.

Ksp ([1]; pH 7) | Ksp ([1]; pH 13.5) | stability in aqueous alkaline processing composition ([4]; about a week or more in processing composition) | Structure (SMILES) | effect of pH / ionization on solubility of the silver salt ([1]; pH 7 vs pH 13.5) | silver solvent behavior at high pH [2] | Ksp [3] | ionization of acetyl group to an anion ([4]; aqueous alkaline photographic processing composition)
~ 1 × 10^-16 | 2 × 10^-15 | – | CC(=NO)c1ccc(-n2nnnc2S)cc1 [Compound II] | increased the solubility of the silver salt of compound II by an order of magnitude | weak to moderate silver solvent at high pH | – | –
– | 4 × 10^-16 | – | Sc1nnnn1-c1ccccc1 [PMT, 1-phenyl-5-mercaptotetrazole, reference compound] | – | PMT is not | 3 × 10^-16 | –
– | – | long term instability characteristics | CC(=O)c1ccc(-n2nnnc2S)cc1 [XI] | – | – | – | does not ionize to any appreciable extent
